According to patent EP4653443A1, “STEREOISOMER AND DEUTERATED DERIVATIVE OF PYRAZOLOQUINAZOLINE COMPOUND AND USE” (Phil Rivers Technology Co., Ltd, priority 2023, dated 2024):
Where two headings read alike, the source gives them in different places.

Tests used:
[1] = tested on: pancreatic cancer cell line (PSN1); experiment: Proliferation inhibitory activity on cell line PSN1 (CellTiter-Glo, 72 hours); type: cell-based; conditions: for IC50: Homo sapiens, PSN1 cell proliferation; for Max Inhibition Percentage: PSN1 cells
Description: • a) Adherent cells need to be digested and centrifuged, while suspension cells can be directly centrifuged; • b) Resuspend with complete culture medium and count using an automatic cell counter; • c) Plate 6,000 cells per well for PSN1, and dilute the cell suspension to the required density; • d) Add 100 µL of cells per well, and culture overnight at 37°C in a 5% CO2 incubator to stabilize and balance the cells.
• a) Prepare the compound with DMSO as a solution of 200-fold final concentration; • b) Dilute the 200-fold compound to a 3-fold final concentration with complete culture medium; • c) Add 50 µL of the compound per well, use wells with the same volume of culture medium as controls, and continue culturing in a 37°C, 5% CO2 incubator for 72 hours.
• a) Equilibrate the cell plate and CTG reagent to room temperature; • b) Add 30 µL of CellTiter-Glo® reagent per well; • c) Incubate at room temperature for 15 minutes; • d) Detect with a microplate reader.
• 1) Calculate IC50 using GraphPad Prism 8; • 2) %Inh = (1-(Raw data - Meanmin) / (Meanmax - Meanmin))×100; • 3) Meanmax is the positive control well with only cells and the same volume of culture medium; • 4) Meanmin is the negative control well with only culture medium; • 5) Raw data refers to the signal values of wells with added compounds. For two replicate wells, they are denoted as Raw1 and Raw2.

HCT116 cells = type: in vivo; conditions: for TGI: test endpoint (PG-D22), TGITV
Description: • Balb/c nude mice: SPF grade, female, 6-8 weeks old, weighing 16-20 g, purchased from SPF (Beijing) Biotechnology Co., Ltd. • HCT116 cells: purchased from ATCC;
HCT116 cells were cultured in RPMI-1640 medium containing inactivated 10% fetal bovine serum, 100 U/mL penicillin, 100 µg/mL streptomycin and 2 mM glutamine in an incubator at 37°C with 5% CO2. Once the cells reached confluence, they were subcultured into new flasks. The tumor cells in the logarithmic growth phase were used for inoculation of tumors in vivo.
The tumor cells were washed twice with PBS, and the cell concentration was adjusted to 5×10^7/ml. The resuspended tumor cells were inoculated subcutaneously in the right flank of the experimental animals at 100 µL/mouse, i.e. 5×10^6/mouse. When the tumor grew to an average tumor volume of […], the animals were grouped for drug administration according to the tumor volume, with a total of 7 groups, 8 animals in each group. The first day of group drug administration was recorded as PG-D0. Table 25. Administration Schedule
During the administration, the health status of the animals is monitored.
From grouping until the end of the experiment, mouse body weight was measured every 3 days using an electronic balance.
From grouping until the end of the experiment, the long and short diameters of the mouse tumors were measured every 3 days using an electronic vernier caliper, and the volume was calculated using the formula: Volume (TV) = 0.5 × long diameter × (short diameter)^2.
RTV is the relative tumor volume, that is, the ratio of the tumor volume after administration to that before administration.
Graphpad prism 8 statistical software was used to perform statistical analysis of tumor volume and tumor weight among groups using the One-Way ANOVA test (homogeneity of variance), and p < 0.05 was considered statistically significant.

[2] = Pharmacokinetic study in mice (IV and PO, plasma LC-MS/MS)
Description: The objective of this study is to investigate the pharmacokinetic properties of the disclosed compounds after tail vein intravenous injection (IV) and oral administration (PO) in female CD1 mice. Plasma was sampleed at 0, 0.083, 0.25, 0.5, 1, 2, 4, 7 and 24 hours post-dosing, and the drug concentrations in plasma at different time points were detected by LC-MS/MS, and the relevant pharmacokinetic parameters were calculated using WinNonlin software.
Experimental female CD1 mice were purchased from SPF Laboratory Animal Technology Co., Ltd., aged 6-8 weeks with body weights of 20-30 g. The female CD1 mice were housed in a controlled environment (set temperature at 20-25°C and relative humidity at 40-70%). A 12-hour light/12-hour dark cycle was maintained unless interrupted by study-related events.
Compound solutions are prepared in an ultra-clean workbench and prepared immediately before use, and mixed thoroughly prior to use to ensure formulation homogeneity.
Vehicle composition: 10% DMSO+90% (20%SBE-β-CD) Table 4. Doses Used in IV Administration
Vehicle composition: 10% DMSO + 90% (20%SBE-β-CD) Table 5. Doses Used in PO Administration
Vehicle composition: 0.5% MC + 1% Tween-20 Table 6. Doses Used in PO Administration
Prior to the experiment, the animals were randomly grouped. The mice were fasted for 12 hours before drug administration, and free feeding was resumed 4 hours after administration.
All blood samples were transferred into plastic microcentrifuge tubes containing anticoagulant (EDTA-K2), and then centrifuged at 4000 g for 5 minutes at 4°C. The supernatant was transferred into a microcentrifuge tube without anticoagulant, and the plasma was stored in a -75±15°C refrigerator until detection.
The blood samples were purified by HPLC and analyzed by mass spectrometry to obtain the plasma concentration-time curve of the disclosed compound.
The pharmacokinetic parameters were estimated by non-compartmental model method (calculated by Phoenix WinNonlin software).

[3] = 30 mg/kg p.o. q.d. 10 consecutive days
[4] = 60 mg/kg p.o. q.d. 10 consecutive days

SMILES | IC50 [1] [nM] | Max Inhibition Percentage ([1]; first column of this head) | Max Inhibition Percentage ([1]; second column of this head) | TGI (HCT116 cells; [3]) [%] | TGI (HCT116 cells; [4]) [%] | F ([2]; PO 10 mg/kg vs IV 10 mg/kg) [%] | mice died (HCT116 cells; 60 mg/kg p.o. q.d., 8 mice per group) | F ([2]; PO 5 mg/kg vs IV 2 mg/kg) [%]
[2H]C1([2H])CN(c2ccc(OC(F)(F)F)c(Nc3ncc4c(n3)-c3c(c(C(N)=O)nn3CCO)CC4)c2)C([2H])([2H])[C@H]2CCCN21 [CPD04] | 105 | 87.6 | 1.3 | 7.6 | 30.5 | 42.8 |  | 
[2H]C1([2H])N(C)C([2H])([2H])C([2H])([2H])N(c2ccc(OC(F)(F)F)c(Nc3ncc4c(n3)-c3c(c(C(N)=O)nn3CCO)CC4)c2)C1([2H])[2H] [CPD06] | 57 | 93.7 | 13.7 | 42.4 | 75.6 | 43.1 |  | 
CN1CCN(c2ccc(OC(F)(F)F)c(Nc3ncc4c(n3)-c3c(c(C(N)=O)nn3CCO)CC4)c2)CC1 [NMS-P937, onvansertib, reference compound] | 53.7 | 85.9 | 2.3 | 44.1 | 64.2 | 27.1 | three | 20.5
